Data on 1 substance can be found in patent US4356167A, “Liposome drug delivery systems” (Sandoz, Inc., priority 1981, dated 1982).

Several values for one entry are separate records, joined by “and”; a condition that tells them apart may be missing. Equal values may be shown once.

The subject of the assay is blood glucose. Description: Blood glucose levels in mice after oral or i.m. dosing of insulin liposomes (Example 2). Particulars: 10μ/kg. In kind it is in vivo. As to the method:
Insulin concentration of the liposomes was 11.69%. Suspensions of the liposome compositions A and B were given orally to mice at concentrations of A-50 U/0.1 ml/10 gms. of body weight; and B-25 U/0.1 ml/10 gms of body weight. A control group received 0.5% carboxymethyl cellulose concurrently.
Composition A was diluted 1:10 for injection i.m. as a control.
After two and four hours the animals were sacrificed by anesthetizing with 85 mg/kg of sodium hexobarbital i.p. and collecting blood via cardiac puncture. The collected blood was placed in an Auto Analyzer Cup containing 0.025 cc. of heparin 1000 units/ml. The blood samples were capped, shaken, and kept in an ice bucket. Glucose was determined by the Auto Analyzer potassium ferriccyanide method No. N-2b.
Carboxymethyl cellulose given either by p.o. or i.m. route has the same effect on blood glucose. Therefore, the test materials whether given p.o. or i.m. can be related to the carboxymethyl cellulose control.

As for “Bovine Pancreatic Insulin: Bovine pancreatic insulin, Sigma Chemical”, under “2 hrs”, the “% Δ blood glucose 2 Hrs. Post (down arrow, decrease vs control)” value is 82%; the “Blood glucose levels 2 Hrs. Post, individual animals” value is 14 MG/100 ml and 12 MG/100 ml and 16 MG/100 ml; the “Blood glucose levels 2 Hrs. Post, mean” value was determined as 14.0 ± 8 MG/100 ml. Moreover, under “4 hrs”, the “% Δ blood glucose 4 Hrs. Post (down arrow, decrease vs control)” value stood at 75%; the “Blood glucose levels 4 Hrs. Post, individual animals” value is 37 MG/100 ml and 10 MG/100 ml and 27 MG/100 ml and 31 MG/100 ml; the “Blood glucose levels 4 Hrs. Post, mean” value came to 26.3 MG/100 ml.
